Measurements from patent US9801901B2, “Alginate oligomers for use in overcoming multidrug resistance in bacteria” (priority 2009, dated 2017).
Converted amounts (≈) assume the structure as drawn. Read-outs that look alike come from different tables or passages of the source. Marks after values point to notes of the source that are not given here.

Assays:
[1] = system: Staphylococcus aureus (MRSA) U50; test: MIC-assay, Mueller-Hinton broth with G-block alginate, 384-well, OD600 (Table 12); format: cell-based; details: MRSA 1040s, U50 MDR, read-out: MIC
Description: (§1) Minimum inhibitory concentration (MICs) of different antibiotics for strains of Streptococcus oralis and Staphylococcus aureus (MRSA) displaying MDR phenotypes in the presence of varying concentrations of OligoCF-5/20 (0-10%). (MIC values are expressed in μg ml^−1).

Streptococcus oralis = test: as above; format: cell-based; details: Streptococcus oralis (5610, V17) MDR, read-out: MIC
Description: as §1

[2] = system: Burkholderia cepacia (1322, V23); test: MIC-assay, Mueller-Hinton broth with G-block alginate, 384-well, OD600
[3] = system: Pseudomonas aeruginosa CFA 24-1, clinical mucoid strain (R80); test: MIC assay, CAMHB with alginate oligomer, no visible growth; format: cell-based; details: Pseudomonas aeruginosa, Table 1, R80, read-out: MIC
[4] = system: Acinetobacter baumannii (Egypt, V9); test: MIC-assay, Mueller-Hinton broth with G-block alginate, 384-well, OD600
[5] = system: Acinetobacter baumannii (MDR ACB, Libya, V4); test: as above
[6] = system: Acinetobacter lwoffii (Egypt, V10); test: as above
[7] = system: Pseudomonas aeruginosa MDR R22 from China (V1); test: MIC assay, CAMHB with alginate oligomer, no visible growth; format: cell-based; details: for MIC: Pseudomonas aeruginosa, Table 1, V1 MDR R22 PA, read-out: MIC
Description: The study described in Example 1 was repeated with the following strains of bacteria and antibiotics as detailed in Tables 4, 5 and 6.

[8] = system: V12 5725 (Wales) Klebsiella pneumoniae; test: as above; format: cell-based; details: Table 5, V12 MDR Kleb pneu
[9] = system: V10 (Egypt) Acinetobacter lwoffii; test: as above; format: cell-based; details: Table 5, V10 MDR Acin. lwoff
[10] = system: Pseudomonas aeruginosa (R22, PSA, V1); test: MIC-assay, Mueller-Hinton broth with G-block alginate, 384-well, OD600
[11] = system: Pseudomonas aeruginosa ATCC 39324, mucoid type strain (R79); test: MIC assay, CAMHB with alginate oligomer, no visible growth; format: cell-based; details: Pseudomonas aeruginosa, ATCC39324, Table 1, R79, read-out: MIC
[12] = system: strains of Klebsiella pneumoniae displaying MDR phenotypes; test: MIC-assay, Mueller-Hinton broth with G-block alginate, 384-well, OD600 (Table 10); format: cell-based
Description: Minimum inhibitory concentration (MICs) of different antibiotics for strains of Klebsiella pneumoniae displaying MDR phenotypes in the presence of varying concentrations of OligoCF-5/20 (0-10%). (MIC values are expressed in μg ml^−1).

[13] = system: PA01 Pseudomonas aeruginosa ATCC 15692; test: MIC assay, two-fold antibiotic dilutions in CAMHB with alginate oligomer, no visible growth; format: cell-based; details: Pseudomonas aeruginosa, ATCC15692, Table 1, PA01, read-out: MIC
[14] = system: Acinetobacter lwoffii (6056, V22); test: MIC-assay, Mueller-Hinton broth with G-block alginate, 384-well, OD600
[15] = system: Burkholderia cepacia (LMG18941, ATCC-BAA-246); test: as above
[16] = system: Pseudomonas aeruginosa (MDR 301, PSA, V2); test: as above; details: Pseudomonas aeruginosa, Table 8, V2
[17] = Table 8, G-block (OligoCF-5/20) 0%
[18] = Table 8, G-block (OligoCF-5/20) 2%
[19] = Table 8, G-block (OligoCF-5/20) 6%
[20] = Table 8, G-block (OligoCF-5/20) 10%
[21] = Table 9, G-block (OligoCF-5/20) 0%
[22] = Table 9, G-block (OligoCF-5/20) 2%
[23] = Table 9, G-block (OligoCF-5/20) 6%
[24] = Table 9, G-block (OligoCF-5/20) 10%

In the case of `CC(C)(O/N=C(\C(=O)N[C@@H]1C(=O)N2C(C(=O)[O-])=C(C[n+]3ccccc3)CS[C@H]12)c1csc(N)n1)C(=O)O` [Ceftazidime], the MIC ([1]; G-block (OligoCF-5/20) 0%) is reported as > 16 µg/mL, the MIC ([1]; G-block (OligoCF-5/20) 2%) is reported as 16 µg/mL (≈ 29.3 µM) and the MIC ([1]; G-block (OligoCF-5/20) 6%) is reported as 8 µg/mL (≈ 14.6 µM). For the same molecule, the MIC ([1]; G-block (OligoCF-5/20) 10%) was 2 µg/mL (≈ 3.66 µM), the MIC (Streptococcus oralis; G-block (OligoCF-5/20) 0%) was 8 µg/mL (≈ 14.6 µM) and the MIC (Streptococcus oralis; G-block (OligoCF-5/20) 2%) was 4 µg/mL (≈ 7.32 µM). The MIC (Streptococcus oralis; G-block (OligoCF-5/20) 6%) was 0.0312 µg/mL (≈ 0.0572 µM), the MIC (Streptococcus oralis; G-block (OligoCF-5/20) 10%) was 1 µg/mL (≈ 1.83 µM) and the MIC [2, 17] was > 16 µg/mL. For the same molecule, the MIC [2, 18] was > 16 µg/mL, the MIC [2, 19] was 16 µg/mL (≈ 29.3 µM) and the MIC [2, 20] was 16 µg/mL (≈ 29.3 µM). The MIC ([3]; OligoCF-5/20 0G) was < 1 µg/mL, the MIC ([3]; OligoCF-5/20 +2% G) was < 1 µg/mL and the MIC ([3]; OligoCF-5/20 +6% G) was < 1 µg/mL. For the same molecule, the MIC ([3]; OligoCF-5/20 +10% G) was < 1 µg/mL, the MIC [4, 21] was > 16 µg/mL and the MIC [4, 22] was > 16 µg/mL. The MIC [4, 23] was > 16 µg/mL, the MIC [4, 24] was > 16 µg/mL and the MIC [5, 21] was 16 µg/mL (≈ 29.3 µM). For the same molecule, the MIC [5, 22] was 8 µg/mL (≈ 14.6 µM), the MIC [5, 23] was 8 µg/mL (≈ 14.6 µM) and the MIC [5, 24] was 8 µg/mL (≈ 14.6 µM). It also gave an MIC [6, 21] of 2 µg/mL (≈ 3.66 µM), an MIC [6, 22] of 1 µg/mL (≈ 1.83 µM) and an MIC [6, 23] of 0.25 µg/mL (≈ 0.457 µM). The MIC [6, 24] was 0.25 µg/mL (≈ 0.457 µM), the MIC ([7]; OligoCF-5/20 0G) was 128 µg/mL (≈ 234 µM) and the MIC ([7]; OligoCF-5/20 +2% G) was 64 µg/mL (≈ 117 µM). For the same molecule, the MIC ([7]; OligoCF-5/20 +6% G) was 32 µg/mL (≈ 58.5 µM), the MIC ([7]; OligoCF-5/20 +10% G) was 8 µg/mL (≈ 14.6 µM) and the “change of MIC in combination with azithromycin by alginate oligomer” value ([7]; Table 3, MDR R22 PA strain) was “reduced”. The MIC ([8]; Klebsiella pneumoniae, OligoCF-5/20 0G, read-out: MIC) was 64 µg/mL (≈ 117 µM), the MIC ([8]; OligoCF-5/20 +2% G) was 64 µg/mL (≈ 117 µM) and the MIC ([8]; OligoCF-5/20 +6% G) was 16^† μg/ml. For the same molecule, the MIC ([8]; OligoCF-5/20 +10% G) was 16^† μg/ml, the MIC ([9]; Acinetobacter lwoffii, OligoCF-5/20 0G, read-out: MIC) was 2 µg/mL (≈ 3.66 µM) and the MIC ([9]; OligoCF-5/20 +2% G) was 2 µg/mL (≈ 3.66 µM). The MIC ([9]; OligoCF-5/20 +6% G) was <0.5^† μg/ml, the MIC ([9]; OligoCF-5/20 +10% G) was <0.5^† μg/ml and the MIC [10, 17] was > 16 µg/mL. The MIC [10, 18] was > 16 µg/mL, the MIC [10, 19] was > 16 µg/mL and the MIC [10, 20] was > 16 µg/mL. The MIC ([11]; OligoCF-5/20 0G) was < 1 µg/mL, the MIC ([11]; OligoCF-5/20 +2% G) was < 1 µg/mL and the MIC ([11]; OligoCF-5/20 +6% G) was < 1 µg/mL. For the same molecule, the MIC ([11]; OligoCF-5/20 +10% G) was < 1 µg/mL, the MIC ([12]; Klebsiella pneumoniae (5712, Wales, V12) MDR, G-block (OligoCF-5/20) 0%, read-out: MIC) was > 16 µg/mL and the MIC ([12]; Klebsiella pneumoniae (5712, Wales, V12) MDR, G-block (OligoCF-5/20) 2%, read-out: MIC) was 8 µg/mL (≈ 14.6 µM). For the same molecule, the MIC ([12]; Klebsiella pneumoniae (5712, Wales, V12) MDR, G-block (OligoCF-5/20) 6%, read-out: MIC) was > 16 µg/mL, the MIC ([12]; Klebsiella pneumoniae (5712, Wales, V12) MDR, G-block (OligoCF-5/20) 10%, read-out: MIC) was > 16 µg/mL and the MIC ([12]; Klebsiella pneumoniae (IR25, India, V6) MDR, G-block (OligoCF-5/20) 0%, read-out: MIC) was > 1020 µg/mL. The MIC ([12]; Klebsiella pneumoniae (IR25, India, V6) MDR, G-block (OligoCF-5/20) 2%) was 1020 µg/mL (≈ 1870 µM), the MIC ([12]; Klebsiella pneumoniae (IR25, India, V6) MDR, G-block (OligoCF-5/20) 6%, read-out: MIC) was > 1020 µg/mL and the MIC ([12]; Klebsiella pneumoniae (IR25, India, V6) MDR, G-block (OligoCF-5/20) 10%) was 1020 µg/mL (≈ 1870 µM). The MIC ([12]; Klebsiella pneumoniae (K3, India, V8) MDR, G-block (OligoCF-5/20) 0%, read-out: MIC) was > 1020 µg/mL, the MIC ([12]; Klebsiella pneumoniae (K3, India, V8) MDR, G-block (OligoCF-5/20) 2%, read-out: MIC) was > 1020 µg/mL and the MIC ([12]; Klebsiella pneumoniae (K3, India, V8) MDR, G-block (OligoCF-5/20) 6%, read-out: MIC) was > 1020 µg/mL. The MIC ([12]; Klebsiella pneumoniae (K3, India, V8) MDR, G-block (OligoCF-5/20) 10%, read-out: MIC) was > 1020 µg/mL, the MIC ([13]; OligoCF-5/20 0G) was < 1 µg/mL and the MIC ([13]; OligoCF-5/20 +2% G) was < 1 µg/mL. For the same molecule, the MIC ([13]; OligoCF-5/20 +6% G) was < 1 µg/mL, the MIC ([13]; OligoCF-5/20 +10% G) was < 1 µg/mL and the MIC [14, 21] was 8 µg/mL (≈ 14.6 µM). For the same molecule, the MIC [14, 22] was 4 µg/mL (≈ 7.32 µM), the MIC [14, 23] was 2 µg/mL (≈ 3.66 µM) and the MIC [14, 24] was 2 µg/mL (≈ 3.66 µM). For the same molecule, the MIC ([15]; ATCCBAA246|LMG18941, Table 8, G-block (OligoCF-5/20) 0%) was > 16 µg/mL, the MIC ([15]; ATCCBAA246|LMG18941, Table 8, G-block (OligoCF-5/20) 2%) was 16 µg/mL (≈ 29.3 µM) and the MIC ([15]; ATCCBAA246|LMG18941, Table 8, G-block (OligoCF-5/20) 6%) was 16 µg/mL (≈ 29.3 µM). It also gave an MIC ([15]; ATCCBAA246|LMG18941, Table 8, G-block (OligoCF-5/20) 10%) of 16 µg/mL (≈ 29.3 µM), an MIC ([16]; G-block (OligoCF-5/20) 0%) of 0.5 µg/mL (≈ 0.915 µM) and an MIC ([16]; G-block (OligoCF-5/20) 6%) of 0.25 µg/mL (≈ 0.457 µM).
